According to patent US10610517B2, “Compositions and methods for treating neoplastic diseases” (Celgene International II Sàrl, priority 2004, dated 2020):

Legend:
[1] = molecular target: proteasome β-5, β-1, β-2 subunits in MM.1S cells (Homo sapiens, UniProt P28072+P28074+Q99436); format: cell-based; details: even higher doses; data not shown
Procedure: In vivo determination of proteasome activity was conducted using a competition experiment with Dansyl-Ahx3L3VS, which covalently modifies all active proteasome subunits. This inhibitor contains a dansyl sulfonamide hexanoyl hapten that can be visualized by immunoblotting using antibodies against the dansyl moiety. […] Cells were lysed by incubating them for 30 mins in NP-40 lysis buffer (50 mM Tris-HCl pH 8.0, 150 mM NaCl, 1% NP-40), followed by 5 min. centrifugation to remove membrane fractions, nuclei, and cell debris. […] Blots were developed by enhanced chemiluminescence (Western Lightning, Perkin-Elmer).

[2] = tested on: Mouse embryonic fibroblast (MEFs); assay: MTT viability of MEFs with wild-type or knock-out Bax; format: cell-based; details: 48 h; FIG. 12F
Source text: Results are mean±SD of three independent experiments (P<0.05).

[3] = tested on: Bcl2-transfected MM.1S cells; assay: MTT viability of Bcl2-transfected MM.1S cells
Procedure: Bcl2 confers resistance to conventional therapies in cancer cells, including MM. […] Bcl2 can modestly attenuate Bortezomib-induced apoptosis. Thus, whether ectopic expression of Bcl2 in MM.1S cells affects responsiveness to the compound of formula (II) (X=Cl) was evaluated. MM.1S cells were stably transfected with Bcl2 construct and analyzed for alterations in cell viability using an MTT assay. […] Results are mean±SD of three independent experiments.
During apoptosis Bax neutralizes the antiapoptotic function of Bcl-2, thereby facilitating the cyto-c release and caspase-9 activation. Bcl-2 also confers drug resistance in cancer cells, including MM, and provides partial protection against Bortezomib-induced killing. Therefore, whether ectopic expression of Bcl-2 in MM.1S cells affects the ability of the compound of formula (II) or Bortezomib to trigger cytotoxicity and postmitochondrial apoptotic signaling in MM cells was evaluated.

proteasome = proteasome (Homo sapiens, UniProt P28074); details: Goldberg & Rock 2002; Adams 2004; cited from earlier work
MM.1S cells [4] = assay: cells
Source text: MM.1S cells were also transiently transfected using Cell line Nucleofecto kit V, according to the manufacturer's instructions (Amaxa Biosystems, Germany), with vector alone, DN-caspase-8, DN-caspase-9, or DN-FADD and cotransfected with vector containing green fluorescence protein (GFP) alone.
It was next determined whether inhibition of an upstream signaling pathway that leads to caspase-8 activation affects the response to the compound of formula (II) (X=Cl) or Bortezomib. The Fas-associated death domain (FADD) protein is an important part of the deathinducing signaling complexes (DISCs) that assemble upon engagement of TNF receptor family members, such as Fas, resulting in proteolytic processing and autoactivation of pro-caspase-8. Since both the compound of formula (II) (X=Cl) and Bortezomib trigger caspase-8 activation, the role of FADD during this event in MM cells was evaluated using DN-FADD.

[5] = tested on: Lymphocytes from five healthy donors; assay: MTT cytotoxicity on normal lymphocytes; details: human, 72 h
Source text: Bortezomib therapy is associated with toxicity in patients. […] Results are the mean±SD of three independent experiments.

Bax = assay: Immunoblot of Bax in mitochondrial protein extracts; format: cell-based, human; details: MM.1S cells; FIG. 12E
Procedure: Immunoblot analysis was performed using antibodies to cytochrome-c, Smac, Caspase-8, -9, or -3 (Cell Signaling, Beverly, Mass.), tubulin (Sigma, St. Louis, Mo.), PARP, Hsp60, or Bax (BD Bioscience Pharmingen, San Diego, Calif.). Blots were developed by enhanced chemiluminesence (ECL; Amersham, Arlington Heights, Ill.).
Previous studies have established that Bax induces mitochondrial apoptotic pathway. See Wei, M. C., Zong, W. X., Cheng, E. H., Lindsten, T., Panoutsakopoulou, V., Ross, A. J., Roth, K. A., MacGregor, G. R., Thompson, C. B. & Korsmeyer, S. J. (2001) Science 292, 727-30 and Lei, K., Nimnual, A., Zong, W. X., Kennedy, N. J., Flavell, R. A., Thompson, C. […] Thus, whether MM cell apoptosis induced by the compound of formula (II) (X=Cl) correlates with alterations in Bax was evaluated. […] Blots are representatives of three independent experiments.

RPMI 8226 MM cells = format: in vivo, beige-nude-xid (BNX) mice; details: i.v. twice weekly (compound 0.15 mg/kg; Bortezomib 1.0 mg/kg)
[6] = tested on: normal CCD-27sk fibroblasts; assay: cells; format: cell-based, human; details: Homo sapiens
Source text: (§1) Whether the compound of formula (II) or Bortezomib alters proteasome activity in normal lymphocytes and skin fibroblasts was also examined.

[7] = tested on: Chymotrypsin-like proteasome activity; format: cell-based, human; details: data not shown
Source text: as §1

MM.1S cells [8] = assay: MTT viability of MM.1S cells with or without rhIL-6 or rhIGF-I; format: cell-based, human; details: human, 24 h
Source text: Adhesion of MM cells to BMSCs induces IL-6 and IGF-I secretion from BMSCs, which not only regulates the growth of MM cells, but also protects against chemotherapy. See Hardin, J., MacLeod, S., Grigorieva, I., Chang, R., Barlogie, B., Xiao, H. & Epstein, J. (1994) Blood 84, 3063-70 and Chauhan, D., Kharbanda, S., Ogata, A., Urashima, M., Teoh, G., Robertson, M., Kufe, D. W. & Anderson, K. C. […] Thus, whether rhIL-6 or rhIGF-I inhibits apoptosis in MM cells induced by the compound of Formula (II) (X=Cl) was evaluated. […] At 24 h cells were harvested and viability analyzed by MTT assays. […] Median viability was 51±2.1% after treatment with Dex and 92±5.5% for Dex+rhIL-6 (P=0.05, as determined by one-sided Wilcoxon rank-sum test). Results are mean±SD of three independent experiments. […] In contrast and as in other studies, both IL-6 and IGF-I block Dex-induced decreased MM.1S cell viability. See Chauhan, D., Hideshima, T. & Anderson, K. C. (2003) Int J Hematol 78, 114-20 and Mitsiades, C. S., Mitsiades, N., Poulaki, V., Schlossman, R., Akiyama, M., Chauhan, D., Hideshima, T., Treon, S. P., Munshi, N. C., Richardson, P. G. & Anderson, K. C.

Sequence of proteasome (P28074 60-263): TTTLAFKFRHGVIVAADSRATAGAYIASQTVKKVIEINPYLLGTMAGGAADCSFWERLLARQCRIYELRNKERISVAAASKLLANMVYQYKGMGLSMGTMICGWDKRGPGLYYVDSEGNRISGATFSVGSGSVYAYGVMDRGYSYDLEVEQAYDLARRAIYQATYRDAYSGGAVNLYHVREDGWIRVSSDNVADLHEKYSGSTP

| Compound | inhibition of the β-2 subunits [1] | cell viability in Bax (WT) and Bax (knock-out) MEFs [2] | increased survival of Bcl-2 transfectants ([3]; Bcl-2- versus vector-transfected, FIG. 14A) [%] | decrease of caspase-9 cleavage in Bcl-2-transfected cells by densitometry ([3]; versus vector-transfected cells, FIG. 14B) [fold] | proteasome activities inhibited (proteasome) | increase in survival of DN-FADD-transfected compared to vector-transfected cells (MM.1S cells [4]; FIG. 12D) [%] | IC50 (MM.1S cells [4]; Homo sapiens, MM1.S) [nM] | effect of caspase-8 blockade on triggered cell death (MM.1S cells [4]; IETD-fmk, FIG. 12A) | effect of caspase-9 inhibition on decreased viability (MM.1S cells [4]; LEHD-FMK, FIG. 12A) | survival of DN-caspase-8-transfected compared to DN-caspase-9-transfected cells (MM.1S cells [4]; treated at IC50, FIG. 12B) | effect of caspase-3 inhibition on induced apoptosis (MM.1S cells [4]; z-VAD-fmk, FIG. 12A) | decrease in viability of normal lymphocytes [5] [%] | Bax levels in mitochondria (Bax) | tumor progression (RPMI 8226 MM cells; p<0.01) | survival (RPMI 8226 MM cells; p=0.0137) | IC50 [6] [nM] | inhibition of Chymotrypsin-like proteasome activity ([7]; 20 nM) [%] | proteasome activity in CCD-27sk fibroblasts ([7]; treatment at the IC50) | median cell viability (MM.1S cells [8]) [%] |
| --- | --- | --- | --- | --- | --- | --- | --- | --- | --- | --- | --- | --- | --- | --- | --- | --- | --- | --- | --- |
| CC(C)C[C@H](NC(=O)[C@H](Cc1ccccc1)NC(=O)c1cnccn1)B(O)O [Bortezomib, reference compound] | does not inhibit the β-2 subunits | deletion of Bax confers significant resistance | 21 | 3 | inhibit only chymotrypsin-like proteasome activity | 16 | 5 | equally blocked | equally blocked | increased the survival to a similar extent | markedly abrogates | 50 | significant accumulation of Bax in mitochondria | significantly reduced the tumor progression | prolonged survival | 15 | 59±11 | inhibited proteasome activity | – |
| C[C@@H]1C[C@H]2[C@@H]3CCC4=CC(=O)C=C[C@]4(C)[C@@]3(F)[C@@H](O)C[C@]2(C)[C@@]1(O)C(=O)CO [Dex, reference compound] | – | – | – | – | – | – | – | – | – | – | – | – | – | – | – | – | – | – | 51±2.1 |
